Assay: Concentrations of B vitamins obtainable in solution using polysorbate 40 as a solvent
Type: physicochemical
Details: polysorbate 40 as a solvent in an amount of at least 1.8 wt. %; water
Description: One of the major disadvantages and drawbacks of the aforementioned prior art references is the absence of both pyridoxine, thiamine, cyanocobalamin in sufficiently high concentrations to ensure the supply of these vitamins to cover the necessary needs of the body.

concentration obtainable in the solution: at least 0.1 wt. %
Substance: cyanocobalamin

Source: patent US20250319026A1, “VITAMIN COMPOSITION FOR ORAL ADMINISTRATION” (priority 2023, published 2025)
